Experimental data reported in patent publication US20250049888A1, “USE OF THE NEGR1 PROTEIN AND BIOLOGICALLY ACTIVE FRAGMENTS THEREOF IN THE THERAPEUTIC TREATMENT OF ALK-RELATED DISEASES” (FONDAZIONE TELETHON ETS (70%), priority 2021, published 2025).

Legend:
ERK1/2 = ERK1/2 phosphorylation in N2a cells, western or dot blotting; type: cell-based, murine; details: 10 minutes; for ERK1/2 phosphorylation (phospho-ERK/ERK): synthetic peptides, 10 μM
Protocol: Protein level and relative phosphorylation was assessed by western blotting. Briefly, upon a wash in PBS, cells were solubilized in lysis buffer (150 mM NaCl, 50 mM HEPES, 0.5% NP40, 1% sodium-deoxycholate). After 1 hour under mild agitation, the lysate was clarified by centrifugation for 20 min at 16,000 g. All experimental procedures were performed at 4° C. Protein concentrations were evaluated via Bradford assay (Bio-Rad, USA). For Western blotting experiments, an equal amount of proteins was diluted with 0.25% 5× Laemmli buffer. The samples were separated on 10% SDS-PAGE gels which were transferred onto nitrocellulose membrane (Sigma-Aldrich) at 80 V for 120 min at 4° C. Primary antibodies were: Beta-actin (Santa Cruz Biotechnology, sc-47778), ALK (Santa Cruz Biotechnology, sc-398791), N-myc (Santa Cruz Biotechnology, sc-56729), Phospho-p44/42 MAPK (Erk1/2) (Thr202/Tyr204) (Cell Signaling Technology), p44/42 MAPK (Erk1/2) (137F5) Rabbit mAb (Cell Signaling Technology), Akt (pan) (11E7) Rabbit mAb (Cell Signaling Technology), Phospho-Akt (Ser473) (D9E) XP® Rabbit mAb (Cell Signaling Technology), S6 Ribosomal Protein (5G10) Rabbit mAb (Cell Signaling Technology). Antibodies were applied overnight in blocking buffer (20 mM Tris, pH 7.4, 150 mM NaCl, 0.1% Tween 20, and 5% nonfat dry milk). Proteins were detected using the ECL prime detection system (GE Healthcare). The ECL signals were acquired with the imaging ChemiDoc Touch system (Bio Rad Laboratory Italy, Segrate, Italy). The optical density of the specific bands was quantified with ImageLab software (Bio Rad).
ALK triggers a signaling cascade that involves ERK and AKT kinases phosphorylation.
Additionally, the N2a cells were treated with the following synthetic peptides: the synthetic version of PepA-1 (synPepA-1), a scramble peptide including the GDKISV sequence (scr-GDKISV, substituting the W, tryptophan, that can undergo oxidation, with I, Isoleucine), and a scramble peptide (10 μM, 10 minutes). […]

N2a cells [1] = assay: N2a cell growth, MTT assay; type: cell-based, murine
Protocol: (§1) The 3-(4,5-dimethylthiazol-2-yl)-2,5-diphenyl tetrazolium bromide (MTT) assay was performed to evaluate culture vitality. N2a cells were cultured in a 96-well plate at a concentration of 5×10^3 cell/cm^2. Treatment condition is indicated in the result section. At the end of the treatment, the MTT solution was added to the cell medium at a final concentration of 0.25 mg/mL. The incubation lasted 30 minutes at 37° C. Next, the medium was removed and the formazan precipitates were collected in DMSO (200 μL). The absorbance was measured at 570 nm using a spectrophotometer (Varioskan LUX, Thermofisher) as a proxy for cell viability. Relative cell viability fold is expressed over the control condition.
At the physiological level, Negr1 exists as a GPI-anchored membrane-bound protein and as a soluble protein released upon metalloprotease cleavage (Sanz et al. 2015; Pischedda and Piccoli 2015). Thus, the inventors studied whether ectopic treatment with soluble recombinant Negr1 (Negr1) might modulate cancer cell growth. […] At DIV5, cellular growth was evaluated by MTT assay.
To further narrow down the minimal biologically active sequence within PepA, the PepA structure was analysed in silico. […] At DIV5, cellular growth was evaluated by MTT assay.

N2a cells [2] = assay: N2a proliferation, cell number at DIV5; type: cell-based, murine; details: 200 ng daily, vs GFP
Protocol: Next, 10,000 naive N2a cells were seeded and treated daily with 200 ng Negr1, PepA, PepB, PepC, or GFP. At DIV5, cell number was evaluated.

[3] = test system: A549 (adenocarcinoma alveolar basal epithelial cells); assay: Growth of human cancer-derived cell line, MTT assay; type: cell-based; details: 200 ng daily, vs GFP
Protocol: as §1
(§2) Next, the capability of Negr1 and peptide PepA to halt the growth of human cancer-derived cell lines, namely U87 (glioblastoma), SK-Mel5 (melanoma), MCF7 (breast adenocarcinoma), A549 (adenocarcinoma alveolar basal epithelial cells), and SH-SY5Y (neuroblastoma) was tested. To this aim, each line was treated daily with 200 ng GFP, rNegr1, or PepA. At DIV5, cellular growth was evaluated by MTT assay. […] Such results are in good agreement with the expression of the receptor ALK, that has been experimentally detected in cancer cell lines of ectodermal origin (including small cell lung carcinoma, breast carcinoma, melanoma, neuroblastoma, and glioblastoma) (Dirks et al. 2002).

[4] = test system: MCF7 (breast adenocarcinoma); assay: as above; type: cell-based; details: 200 ng daily, vs GFP
Protocol: as §1, §2

SH-SY5Y (neuroblastoma) = assay: as above; type: cell-based; details: 200 ng daily, vs GFP
Protocol: as §1, §2

SK-Mel5 (melanoma) = assay: as above; type: cell-based; details: 200 ng daily, vs GFP
Protocol: as §1, §2

U87 (glioblastoma) = assay: as above; type: cell-based; details: 200 ng daily, vs GFP
Protocol: as §1, §2

With “DGASKGAWLNRSSIIFAGVWGSKDDPRVSISTL (PepA-1-6aa scramble) [reference compound]” the “ERK1/2 phosphorylation (phospho-ERK/ERK)” value (ERK1/2) was “did not alter ERK phosphorylation”.

For “GDKWSV (minimum active sequence) [GDKWSV peptide]”, the “ERK1/2 phosphorylation (dot-blot)” value (ERK1/2; 30 nM) was “severe reduction of ERK1/2 phosphorylation”.

With “NRGDKISVSVSSSSGGRAWDWDIAKPGLAILTF (Scramble-GDKISV) [scr-GDKISV]” the “ERK1/2 phosphorylation (phospho-ERK/ERK)” value (ERK1/2) was “reduced ERK1/2 phosphorylation”.

With “Negr1: soluble recombinant full-length Negr1 protein, Strep-FLAG tagged, expressed and purified from HEK293 cells” the “N2a growth (MTT) at DIV5” value (N2a cells [1]; 200 ng daily, vs GFP) was “significantly reduced N2a growth”, the “N2A growth / cellular vitality (MTT) at DIV5” value (N2a cells [1]; 3 μM daily, vs vehicle (Lorlatinib) or GFP (rNegr1, PepA-1)) was “impaired N2A growth to a similar extent” and the “N2a proliferation (cell number) at DIV5” value (N2a cells [2]) was “significantly reduced N2a proliferation”. For the same substance, the “growth of A549 cells (MTT) at DIV5” value [3] was “significantly reduce the growth”, the “growth of MCF7 cells (MTT) at DIV5” value [4] was “significantly reduce the growth” and the “growth of SH-SY5Y cells (MTT) at DIV5” value (SH-SY5Y (neuroblastoma)) was “significantly reduce the growth”. For the same substance, the “growth of SK-Mel5 cells (MTT) at DIV5” value (SK-Mel5 (melanoma)) was “significantly reduce the growth” and the “growth of U87 cells (MTT) at DIV5” value (U87 (glioblastoma)) was “significantly reduce the growth”.
